molecular target: Nanoluciferase-BRD9 fusion protein (Homo sapiens (Human), UniProt Q9H8M2); assay: SYO1 BRD9 NanoLuc degradation assay; assay type: cell-based; conditions: Table 5C; SYO-1 cells expressing 3×FLAG-NLuc-BRD9, 6 hours
Summary of the method: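 Degradation was read as loss of nanoluciferase signal (Nano-Glo) after 6 h compound exposure in a stable SYO-1 line carrying 3×FLAG-NLuc-BRD9 (8000 cells/well). Normalised between DMSO (high) and a 1 μM known BRD9 degrader (low).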

Chain of Nanoluciferase-BRD9 fusion protein (Q9H8M2 whole entry, the tested form may be a part): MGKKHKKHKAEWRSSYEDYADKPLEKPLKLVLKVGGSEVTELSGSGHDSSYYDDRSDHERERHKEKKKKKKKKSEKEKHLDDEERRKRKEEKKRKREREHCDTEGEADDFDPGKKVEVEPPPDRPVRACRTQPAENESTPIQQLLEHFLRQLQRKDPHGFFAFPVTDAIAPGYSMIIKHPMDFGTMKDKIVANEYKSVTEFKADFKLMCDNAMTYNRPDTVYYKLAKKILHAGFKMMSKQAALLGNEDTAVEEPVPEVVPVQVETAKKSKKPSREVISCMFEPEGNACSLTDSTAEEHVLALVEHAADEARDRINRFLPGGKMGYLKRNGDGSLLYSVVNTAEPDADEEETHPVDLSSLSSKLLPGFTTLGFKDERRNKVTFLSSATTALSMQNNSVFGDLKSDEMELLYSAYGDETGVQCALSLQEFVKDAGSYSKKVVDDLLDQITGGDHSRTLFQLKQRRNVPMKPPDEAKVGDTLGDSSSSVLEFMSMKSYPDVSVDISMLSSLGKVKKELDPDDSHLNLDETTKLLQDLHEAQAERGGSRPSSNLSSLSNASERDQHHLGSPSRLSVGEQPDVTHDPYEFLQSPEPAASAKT

IC50 [nM]	SMILES
< 10	COc1cc(-c2cc(C)c(=O)n(C)c2)cc(OC)c1CN1CC(C)(C#Cc2ccc3c(c2)C(=O)N(C2CCC(=O)NC2=O)C3)C1 (centres unmarked) [Compound D450]
< 10	COc1cc(-c2cc(C)c(=O)n(C)c2)cc(OC)c1CN1CC(C#Cc2ccc3c(c2)C(=O)N(C2CCC(=O)NC2=O)C3)C1C (centres unmarked) [Compound D453]
> 1000	C/C=C/Cn1cc(-c2ccc(CN3CCN(S(=O)(=O)c4ccc5c(c4)C(=O)N(C4CCC(=O)NC4=O)C5)CC3)c(Cl)c2)n2cncc2c1=O (centres unmarked) [Compound D464]

same assay, conditions: Table 5C; SYO-1 cells expressing 3×FLAG-NLuc-BRD9, 6 hours; read-out: SYO1 BRD9-NanoLuc degradation IC50

SMILES	DC50 [nM]
COc1cc(-c2cn(C)c(=O)c3cnn(C)c23)cc(OC)c1CN1CCC2(CC1)CN(c1ccc3c(c1)C(=O)N(C1CCC(=O)NC1=O)C3)C2 (centres unmarked) [Compound D414]	< 10
COc1cc(-c2cn(C)c(=O)c3cn(C)nc23)cc(OC)c1CN1CCC2(CC1)CN(c1ccc3c(c1)C(=O)N(C1CCC(=O)NC1=O)C3=O)C2 (centres unmarked) [Compound D415]	< 10
COc1cc(-c2cn(C)c(=O)c3cn(C)nc23)cc(OC)c1CN1CCC2(CC1)CN(c1ccc3c(c1)C(=O)N(C1CCC(=O)NC1=O)C3)C2 (centres unmarked) [Compound D416]	< 10
CCn1cc2c(=O)n(C)cc(-c3cc(OC)c(CN4CCC5(CC4)CN(c4ccc6c(c4)C(=O)N(C4CCC(=O)NC4=O)C6)C5)c(OC)c3)c2n1 (centres unmarked) [Compound D417]	< 10
COc1cc(-c2cn(C)c(=O)c3[nH]cc(C)c23)cc(OC)c1CN1CCC2(CC1)CN(c1ccc3c(c1)C(=O)N(C1CCC(=O)NC1=O)C3=O)C2 (centres unmarked) [Compound D418]	< 10
COc1cc(-c2cn(C)c(=O)c3nn(C)cc23)cc(OC)c1CN1CCC2(CC1)CN(c1ccc3c(c1)C(=O)N(C1CCC(=O)NC1=O)C3)C2 (centres unmarked) [Compound D421]	< 10
COc1cc(-c2cn(C)c(=O)c3[nH]c(C)cc23)cc(OC)c1CN1CCC2(CC1)CN(c1ccc3c(c1)C(=O)N(C1CCC(=O)NC1=O)C3)C2 (centres unmarked) [Compound D422]	< 10
COc1cc(-c2cc(C)c(=O)n(C)c2C)cc(OC)c1CN1CCN(c2ccc3c(c2)CN(C2CCC(=O)NC2=O)C3=O)CC1 (centres unmarked) [Compound D423]	< 10
[2H]C([2H])([2H])n1cc(-c2cc(OC)c(CN3[C@H](C)CN(c4ccc5c(c4)C(=O)N(C4CCC(=O)NC4=O)C5)C[C@H]3C)c(OC)c2)c2nn(C)cc2c1=O (some centres unmarked) [Compound D424]	< 10
COc1cc(-c2cc(C(F)F)c(=O)n(C)c2)cc(OC)c1CN1CCC2(CC1)CN(c1ccc3c(c1)C(=O)N(C1CCC(=O)NC1=O)C3)C2 (centres unmarked) [Compound D425]	< 10
COc1cc(-c2cn(C)c(=O)c3[nH]cc(C)c23)cc(OC)c1CN1CCC2(CC1)CN(c1ccc3c(c1)C(=O)N(C1CCC(=O)NC1=O)C3)C2 (centres unmarked) [Compound D426]	< 10
COc1cc(-c2cc(C)c(=O)n(C)c2C)cc(OC)c1CN1CCN(c2ccc3c(c2)C(=O)N(C2CCC(=O)NC2=O)C3)CC1 (centres unmarked) [Compound D427]	< 10
COc1cc(-c2cn(C)c(=O)c3cncn23)cc(OC)c1CN1CCC2(CC1)CN(c1ccc3c(c1)C(=O)N(C1CCC(=O)NC1=O)C3)C2 (centres unmarked) [Compound D428]	< 10
COc1cc(-c2cn(C)c(=O)cn2)cc(OC)c1CN1CCC2(CC1)CN(c1ccc3c(c1)C(=O)N(C1CCC(=O)NC1=O)C3)C2 (centres unmarked) [Compound D429]	> 1000
COc1cc(-c2cn(C)c(=O)c(C)c2C)cc(OC)c1CN1CCC2(C1)CN(c1ccc3c(c1)C(=O)N(C1CCC(=O)NC1=O)C3=O)C2 (centres unmarked) [Compound D430]	< 10
COc1cc(-c2cn(C)c(=O)c3cccn23)cc(OC)c1CN1CCC2(CC1)CN(c1ccc3c(c1)C(=O)N(C1CCC(=O)NC1=O)C3)C2 (centres unmarked) [Compound D431]	< 10
COc1cc(-c2cc(C(F)F)c(=O)n(C)c2)cc(OC)c1CN1CCC2(C1)CN(c1ccn3c(=O)n(C4CCC(=O)NC4=O)nc3c1)C2 (centres unmarked) [Compound D432]	10 to 100
COc1cc(-c2cn(C)c(=O)c3[nH]ncc23)cc(OC)c1CN1CCC2(CC1)CN(c1ccc3c(c1)C(=O)N(C1CCC(=O)NC1=O)C3)C2 (centres unmarked) [Compound D433]	< 10
COc1cc(-c2cn(C)c(=O)c3[nH]cnc23)cc(OC)c1CN1CCC2(CC1)CN(c1ccc3c(c1)C(=O)N(C1CCC(=O)NC1=O)C3)C2 (centres unmarked) [Compound D434]	< 10
COc1cc(-c2ccn3c(=O)n(C)ccc23)cc(OC)c1CN1CCC2(CC1)CN(c1ccc3c(c1)C(=O)N(C1CCC(=O)NC1=O)C3)C2 (centres unmarked) [Compound D435]	> 1000
COc1cc(-c2cn(C)c(=O)cc2C)cc(OC)c1CN1CCN(c2ccc3c(c2)C(=O)N(C2CCC(=O)NC2=O)C3=O)CC1 (centres unmarked) [Compound D436]	< 10
COc1cc(-c2c(C)n(C)c(=O)c3[nH]c(C)cc23)cc(OC)c1CN1CCC2(CC1)CN(c1ccc3c(c1)C(=O)N(C1CCC(=O)NC1=O)C3)C2 (centres unmarked) [Compound D437]	> 1000
COc1cc(-c2cc(C)c(=O)n(C)c2)cc(OC)c1CN1CC(C#Cc2ccc3c(c2)C(=O)N(C2CCC(=O)NC2=O)C3)C1 (centres unmarked) [Compound D438]	< 10
COc1cc(-c2cc(C)c(=O)n(C)c2)cc(OC)c1CN1CC(C#Cc2ccc3c(c2)CN(C2CCC(=O)NC2=O)C3=O)C1 (centres unmarked) [Compound D440]	< 10
COc1cc(-c2cc(C(F)F)c(=O)n(C)c2)cc(OC)c1CN1CC(C#Cc2ccc3c(c2)CN(C2CCC(=O)NC2=O)C3=O)C1 (centres unmarked) [Compound D441]	< 10

Further lines, results first:

DC50 [nM]	SMILES
< 10	COc1cc(-c2cc(C)c(=O)n(C)c2)cc(OC)c1CN1CCC(C#Cc2ccc3c(c2)C(=O)N(C2CCC(=O)NC2=O)C3)C1 (centres unmarked) [Compound D442]
< 10	COc1cc(-c2cc(C)c(=O)n(C)c2)cc(OC)c1CN1CCC(C#Cc2ccc3c(c2)C(=O)N(C2CCC(=O)NC2=O)C3)CC1 (centres unmarked) [Compound D443]
< 10	COc1cc(-c2cc(C(F)F)c(=O)n(C)c2)cc(OC)c1CN1CCC(C#Cc2ccc3c(c2)C(=O)N(C2CCC(=O)NC2=O)C3)CC1 (centres unmarked) [Compound D444]
> 1000	COc1cc(-c2c(C)n(C)c(=O)c3[nH]cc(C)c23)cc(OC)c1CN1CCC2(CC1)CN(c1ccc3c(c1)C(=O)N(C1CCC(=O)NC1=O)C3=O)C2 (centres unmarked) [Compound D445]
> 1000	COc1cc(-c2c(C)n(C)c(=O)c3[nH]c(C)cc23)cc(OC)c1CN1CCC2(CC1)CN(c1ccc3c(c1)C(=O)N(C1CCC(=O)NC1=O)C3=O)C2 (centres unmarked) [Compound D446]
100 to 1000	COc1cc(-c2cn(C)c(=O)c3nccn23)cc(OC)c1CN1CCC2(CC1)CN(c1ccc3c(c1)C(=O)N(C1CCC(=O)NC1=O)C3)C2 (centres unmarked) [Compound D447]
< 10	COc1cc(-c2cc(C)c(=O)n(C)c2)cc(OC)c1CN1CC(CCc2ccc3c(c2)C(=O)N(C2CCC(=O)NC2=O)C3)C1 (centres unmarked) [Compound D448]
10 to 100	COc1cc(-c2cc(C)c(=O)n(C)c2)cc(OC)c1CN1CC(Cc2ccc3c(c2)C(=O)N(C2CCC(=O)NC2=O)C3)C1 (centres unmarked) [Compound D449]
10 to 100	COc1cc(-c2cc(C(F)F)c(=O)n(C)c2)cc(OC)c1-c1ccc2c(c1)C(=O)N(C1CCC(=O)NC1=O)C2 (centres unmarked) [Compound D451]
< 10	COc1cc(-c2cc(C)c(=O)n(C)c2)cc(OC)c1CN1CCN(c2ccc3c(c2)C(=O)N(C2CCC(=O)NC2=O)C3)CC1 (centres unmarked) [Compound D452]
< 10	C/C=C/Cn1cc(-c2cc(OC)c(CN3CCC4(CC3)CN(c3ccc5c(c3)C(=O)N(C3CCC(=O)NC3=O)C5)C4)c(OC)c2)n2cncc2c1=O (centres unmarked) [Compound D454]
< 10	COc1cc(-c2cc(C(F)F)c(=O)n(C)c2)cc(OC)c1C1CN(c2ccc3c(c2)C(=O)N(C2CCC(=O)NC2=O)C3)C1 (centres unmarked) [Compound D455]
< 10	COc1cc(-c2cn(C)c(=O)c3ccnn23)cc(OC)c1CN1CCC2(CC1)CN(c1ccc3c(c1)C(=O)N(C1CCC(=O)NC1=O)C3)C2 (centres unmarked) [Compound D456]
< 10	COc1cc(-c2cc(C)c(=O)n(C)c2)cc(OC)c1CN1CC(/C=C/c2ccc3c(c2)C(=O)N(C2CCC(=O)NC2=O)C3)C1 (centres unmarked) [Compound D457]
< 10	Cc1cc(-c2ccc(N3CCN(c4ccc5c(c4)C(=O)N(C4CCC(=O)NC4=O)C5)CC3)cc2)cn(C)c1=O (centres unmarked) [Compound D459]
< 10	Cc1cc(-c2ccc(CN3CCN(c4ccc5c(c4)C(=O)N(C4CCC(=O)NC4=O)C5)CC3)cc2)cn(C)c1=O (centres unmarked) [Compound D460]
10 to 100	COc1cc(-c2cn(C)c(=O)c(C)n2)cc(OC)c1CN1CCC2(CC1)CN(c1ccc3c(c1)C(=O)N(C1CCC(=O)NC1=O)C3)C2 (centres unmarked) [Compound D461]
< 10	COc1cc(-c2cn(C)c(=O)c3cn(OC)nc23)cc(OC)c1CN1CCC2(CC1)CN(c1ccc3c(c1)C(=O)N(C1CCC(=O)NC1=O)C3)C2 (centres unmarked) [Compound D462]
< 10	C/C=C/Cn1cc(-c2ccc(CN3CCC4(CC3)CN(c3ccc5c(c3)C(=O)N(C3CCC(=O)NC3=O)C5)C4)c(Cl)c2)n2cncc2c1=O (centres unmarked) [Compound D465]
> 1000	C/C=C/Cn1cc(-c2cc(OC)c(CN3CCC4(CC3)CN(c3ccc5c(c3)C(=O)N(C3CCC(=O)NC3=O)C5)C4)c(OC)c2)c2cc(C)[nH]c2c1=O (centres unmarked) [Compound D467]
> 1000	C/C=C/Cn1cc(-c2cc(OC)c(CN3CCN(c4ccc5c(c4)C(=O)N(C4CCC(=O)NC4=O)C5)CC3)c(OC)c2)c2cc(C)[nH]c2c1=O (centres unmarked) [Compound D468]
< 10	COc1cc(-c2cn(C)c(=O)c3cnccc23)cc(OC)c1CN1CCC2(CC1)CN(c1ccnc(C(=O)NC3CCC(=O)NC3=O)c1)C2 (centres unmarked) [Compound D471]
> 1000	COc1cc(-c2cn(C)c(=O)c3cnccc23)cc(OC)c1CN1CCC2(CC1)CN(c1nccc(C(=O)NC3CCC(=O)NC3=O)n1)C2 (centres unmarked) [Compound D472]
> 1000	COc1cc(-c2cn(C)c(=O)c3cnccc23)cc(OC)c1CN1CCC2(CC1)CN(c1cncc(C(=O)NC3CCC(=O)NC3=O)n1)C2 (centres unmarked) [Compound D473]
> 1000	COc1cc(-c2cn(C)c(=O)c3cnccc23)cc(OC)c1CN1CCC2(CC1)CN(c1ccc3c(c1)C(=O)N(C1CC(=O)NC(=O)C1)C3)C2 [Compound D474]
